Laboratory results from US20180318300A1, “TREATMENT OF AUTOIMMUNE DISEASE” (MingSight Pharmaceuticals, Inc., priority 2015, published 2018).
Marks after values point to notes of the source that are not given here.

Legend:
[1] = treatment of increased spleen weight; assay type: in vivo; details: FIG. 10
MRL/lpr lupus model = test: MRL/lpr lupus model; assay type: in vivo
[2] = test system: experimental autoimmune uveitis; test: Lewis rat model of experimental autoimmune uveitis; assay type: in vivo; details: oral, once per day, 10 and 20 mg/kg
Protocol: The efficacy was compared to animals that received the positive control cyclosporine dosed at 25 mg/kg. […] Efficacy in the model was assessed by clinical grading and by assessment of the sections of the eyes prepared for histology at the completion of the experiment.

Human PKC delta = Human PKC delta (Homo sapiens, UniProt Q05655); test: In vitro PKC inhibition assay, PKC delta; assay type: biochemical
Human PKC delta, sequence (Q05655 whole entry): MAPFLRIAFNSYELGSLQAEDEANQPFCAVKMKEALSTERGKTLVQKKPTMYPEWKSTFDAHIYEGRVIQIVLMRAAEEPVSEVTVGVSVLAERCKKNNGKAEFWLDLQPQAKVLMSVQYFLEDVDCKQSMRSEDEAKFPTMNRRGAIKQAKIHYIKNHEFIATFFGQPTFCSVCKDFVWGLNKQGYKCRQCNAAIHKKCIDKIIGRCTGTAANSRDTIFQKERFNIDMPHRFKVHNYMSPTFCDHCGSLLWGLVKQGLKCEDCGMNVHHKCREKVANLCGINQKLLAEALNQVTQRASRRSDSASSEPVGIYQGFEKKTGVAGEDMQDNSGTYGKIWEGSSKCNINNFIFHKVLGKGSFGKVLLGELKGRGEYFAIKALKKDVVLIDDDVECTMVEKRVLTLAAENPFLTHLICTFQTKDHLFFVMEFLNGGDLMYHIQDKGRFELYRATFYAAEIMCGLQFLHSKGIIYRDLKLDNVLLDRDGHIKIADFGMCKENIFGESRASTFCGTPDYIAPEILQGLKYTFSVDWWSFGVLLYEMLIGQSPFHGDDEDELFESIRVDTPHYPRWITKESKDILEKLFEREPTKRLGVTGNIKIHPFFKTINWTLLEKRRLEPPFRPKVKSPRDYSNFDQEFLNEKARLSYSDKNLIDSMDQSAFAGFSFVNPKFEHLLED
From the text: (§1) The methods for these determinations have been described (Grant, et al. 2010, Eur J Pharmacol. 627:16-25).

[3] = Separate pharmacokinetics experiments in mice; assay type: in vivo; details: 60 mg/kg dose, oral suspension
PKCβ = PKCβ (Homo sapiens, UniProt P05771); test: pSHP2 (PKCβ cell assay); assay type: cell-based
PKCβ, sequence (P05771 whole entry, species assumed): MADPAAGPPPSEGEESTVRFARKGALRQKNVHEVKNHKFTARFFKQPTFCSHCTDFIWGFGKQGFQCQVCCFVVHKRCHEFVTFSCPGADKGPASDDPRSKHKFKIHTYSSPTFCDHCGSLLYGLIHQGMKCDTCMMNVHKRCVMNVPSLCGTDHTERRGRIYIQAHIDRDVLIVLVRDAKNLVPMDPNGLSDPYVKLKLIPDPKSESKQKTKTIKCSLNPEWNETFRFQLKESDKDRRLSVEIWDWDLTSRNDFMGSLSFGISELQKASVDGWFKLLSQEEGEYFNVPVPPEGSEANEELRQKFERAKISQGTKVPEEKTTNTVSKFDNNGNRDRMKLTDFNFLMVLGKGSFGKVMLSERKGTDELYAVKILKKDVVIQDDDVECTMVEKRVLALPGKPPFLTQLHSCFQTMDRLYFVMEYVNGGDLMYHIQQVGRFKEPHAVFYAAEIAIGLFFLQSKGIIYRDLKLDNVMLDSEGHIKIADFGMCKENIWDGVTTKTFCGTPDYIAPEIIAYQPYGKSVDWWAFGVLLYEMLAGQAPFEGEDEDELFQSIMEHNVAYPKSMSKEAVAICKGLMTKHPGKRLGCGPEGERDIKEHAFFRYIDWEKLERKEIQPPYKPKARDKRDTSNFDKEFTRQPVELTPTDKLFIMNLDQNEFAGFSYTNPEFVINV

Interleukin-8 release = test: Interleukin-8 release; assay type: cell-based
From the text: as §1

[4] = test system: MRL/lpr mouse model of lupus; test: MRL/lpr mouse model of lupus; assay type: in vivo, Female MRL/MpJ-Tnfrsf6lpr/J mice
Protocol: Compound A was tested for efficacy in the MRL/lpr mouse model of lupus (Shlomchik M J, et al, 1994, J Exp Med 180:1295-1306; Cohen P L and Eisenberg R. A. 1991, Annu Rev Immunol, 9:243-69; Honigberg, L. A., et al., 2010, Proc Natl Acad Sci USA. 107:13075-80). Female MRL/MpJ-Tnfrsf6lpr/J mice of 8-9 weeks of age were used in the study. When the mice reached 12 weeks of age, they were randomized by animal body weight into one of the treatment groups or an untreated control group. Treatments was initiated after randomization and continued for 12 weeks. Starting on study week 1, and then every week thereafter, urine from each animal was tested for proteinuria using the Clinitech Multistick test strip (Bayer). The animals were observed daily for significant clinical signs, moribundity and mortality. Scoring of lymphadenopathy (cervical, brachial, and inguinal) for all animals was recorded every week once lesions become apparent in 50% of the animals in vehicle-treated group.
Compound A was prepared as an oral suspension. Initial dosing was completed at two dose levels, 60 and 90 mg/kg, BID for a total dose of 120 and 180 mg/kg/day. […] Dosing for the final 8 weeks was at 180 and 240 mg/kg/day.

[5] = test system: rat model of encephalitis; test: rat model of encephalitis; assay type: in vivo; details: FIG. 11
[6] = test system: experimental autoimmune encephalitis (EAE) model; test: Experimental autoimmune encephalitis (EAE) model in Lewis rats; assay type: in vivo; details: for EAE incidence (%): from Day 8
Protocol: Compound A was tested in the experimental autoimmune encephalitis (EAE) model in Lewis rats. EAE was induced by MBP69-88/CFA immunization and pertussis toxin injection in Lewis rats (Hashim, et al., 1986, J Neurosci Res.; 16(3):467-78). Compound A was prepared as an oral suspension and dosed orally, twice per day (BID) at three doses, 7.5 and 15 and 30 mg/kg for total daily doses of 15, 30 and 60 mg/kg. The efficacy was compared to animals that received the positive control FTY720 (also known as fingolimod; a compound approved for use in humans) dosed once per day at a dose of 0.5 mg/kg.

[7] = 120 mg/kg p.o. BID (60 mg/kg BID for the initial 4 weeks)
[8] = both doses (180 and 240 mg/kg/day for the final 8 weeks)

Cc1ncc(F)c(Nc2n[nH]c3c2CN(C(=O)N2C[C@@H](C)N(CC4CCOCC4)C[C@@H]2C)C3(C)C)n1 [compound A, 5-{[(2S,5R)-2,5-dimethyl-4-(tetrahydro-2H-pyran-4-ylmethyl)piperazin-1-yl]carbonyl}-N-(5-fluoro-2-methylpyrimidin-4-yl)-6,6-dimethyl-1,4,5,6-tetrahydropyrrolo[3,4-c]pyrazol-3-amine]
increased spleen weight [1]: efficacy
urine score (MRL/lpr lupus model; FIG. 7): reducing urine score
lymphadenopathy (MRL/lpr lupus model; FIG. 8): reducing lymphadenopathy
splenomegaly (MRL/lpr lupus model; FIG. 9): reducing splenomegaly
Reduction in clinical scores (FIG. 12) [2]: greater than 50%
Reduction in histopathological scores (FIG. 13) [2]: greater than 75%
Inhibition of PKC delta (in words) (Human PKC delta): does not significantly inhibit
Exposure of compound A in mice [3]: unexpectedly low and insufficient exposure
IC50 (PKCβ): 9.8 nM
IC50 (Interleukin-8 release): 39 nM
BUN/Creatinine ([4]; 90 mg/kg p.o. BID): 163.9
Creatinine ([4]; 90 mg/kg p.o. BID): 0.26
BUN ([4]; 90 mg/kg p.o. BID, 12 weeks of treatment): 52.4 mg/dL
BUN [4, 7]: 29.5 mg/dL
BUN/Creatinine [4, 7]: 147.7
Creatinine [4, 7]: 0.20
Lymphadenopathy score (FIG. 8) [4, 8]: reduction
Mean absolute spleen weight (FIG. 9) [4, 8]: reduction
Mean lymph node weight (FIG. 10) [4, 8]: reduction
Protein in the urine (FIG. 7) [4, 8]: significant reduction
efficacy in a rat model of encephalitis [5]: efficacy
Mean day of onset +/− SEM (sick rats) ([6]; 7.5 mg/kg p.o. BID): 9.0 +/− 0.5
Median day of onset (all rats) ([6]; 7.5 mg/kg p.o. BID): 9.0
EAE incidence (%) ([6]; 7.5 mg/kg p.o. BID): 100.0%
Mean day of onset +/− SEM (sick rats) ([6]; 15 mg/kg p.o. BID): 8.5 +/− 0.4
Median day of onset (all rats) ([6]; 15 mg/kg p.o. BID): 8.0
EAE incidence (%) ([6]; 15 mg/kg p.o. BID): 100.0%
Mean day of onset +/− SEM (sick rats) ([6]; 30 mg/kg p.o. BID): 9.0 +/− 0.9
Median day of onset (all rats) ([6]; 30 mg/kg p.o. BID): 13.5
EAE incidence (%) ([6]; 30 mg/kg p.o. BID, p<0.05 vs. vehicle): 50.0%*
Clinical score in the EAE model ([6]; 7.5, 15 and 30 mg/kg BID): dose-dependent decrease
End EAE severity compared to the vehicle control group (FIG. 11) ([6]; 15 and 30 mg/kg BID): significantly reduced
Maximum EAE severity compared to the vehicle control group (FIG. 11) ([6]; 15 and 30 mg/kg BID): significantly reduced
Clinical score compared with fingolimod ([6]; highest dose employed (30 mg/kg BID) vs fingolimod 0.5 mg/kg QD): appeared superior to fingolimod

CCCCCCCCc1ccc(CCC(N)(CO)CO)cc1 [FTY720, fingolimod, reference compound]
Mean day of onset +/− SEM (sick rats) ([6]; 0.5 mg/kg p.o. QD): 8.0 +/− 0.3
Median day of onset (all rats) ([6]; 0.5 mg/kg p.o. QD): 8.0
EAE incidence (%) ([6]; 0.5 mg/kg p.o. QD): 87.5%
